Measured values published in ChEMBL document CHEMBL1152383, “Design and synthesis of indole, 2,3-dihydro-indole, and 3,4-dihydro-2H-quinoline-1-carbothioic acid amide derivatives as novel HCV inhibitors” (Bioorg Med Chem Lett, 2009).

Tests used:
Hepatitis C virus = test: Antiviral activity against HCV 1b infected in human HuH7 cells assessed as inhibition of viral sub-genomic replication by EG(delta-4AB)SEAP reporter protein assay; format: functional, organism-based, Hepacivirus hominis; conditions: genotype 1b, Huh-7
[1] = Selectivity index, ratio of CC50 for human HuH7 cells to EC50 for HCV 1b; design: species or system Huh-7
[2] = Cytotoxicity against human HuH7 cells; format: cell-based, Huh-7

Compound | EC50 (Hepatitis C virus) [µM] | Ratio CC50/EC50 [1] | CC50 [2] [µM]
NC(=S)Nc1cccc(Oc2ccccc2)c1 | 0.49 | – | –
N#Cc1cccc(C(=O)NC(=S)N2CCc3c(OCCCCCOc4ccc(Cl)cc4)cccc32)c1 | 0.57 | 17 | 9.75
N#Cc1ccc(C(=O)NC(=S)N2CCc3c(OCCCCCOc4ccc(Cl)cc4)cccc32)cc1 | 0.51 | >98 | > 50
Cc1ccc(C(=O)NC(=S)N2CCc3c(OCCCCCOc4ccc(Cl)cc4)cccc32)cc1 | 1.94 | >26 | > 50
S=C(NC(=S)N1CCc2c(OCCCCCOc3ccc(Cl)cc3)cccc21)Oc1ccccc1 | > 50 | >1 | > 50
CN(C)c1ccc(C(=O)NC(=S)N2CCc3c(OCCCCCOc4ccc(Cl)cc4)cccc32)cc1 | 42.4 | >1 | > 50
O=C(NC(=S)N1CCc2cc(OCc3ccccc3)ccc21)c1ccccc1 | 4.81 | 9 | 45.2
O=C(NC(=S)N1CCc2c(OCCCCCOc3ccc(Cl)cc3)cccc21)c1cccnc1 | 2.37 | 5 | 11.1
O=C(NC(=S)N1CCc2c(OCCCCCOc3ccc(Cl)cc3)cccc21)c1ccoc1 | 1.72 | 12 | 20.1
O=C(NC(=S)N1CCc2c(OCCCCCOc3ccc(Cl)cc3)cccc21)c1cc2ccccc2s1 | 1.1 | >45 | > 50
NC(=S)N1CCCc2c(OCCCCCOc3cccc4ccccc34)cccc21 | > 50 | >1 | > 50
COc1ccc(C(=O)NC(=S)N2CCc3c(OCCCCCOc4ccc(Cl)cc4)cccc32)cc1 | 2.02 | 17 | 34.4
O=C(NC(=S)N1CCc2c(OCCCCCOc3ccc(Cl)cc3)cccc21)c1ccc(Cl)cc1 | 0.69 | 31 | 21.7
O=C(NC(=S)N1CCc2c(OCCCCCOc3ccc(Cl)cc3)cccc21)Oc1ccccc1 | > 50 | >1 | > 50
O=C(NC(=S)N1CCc2ccc(OCc3ccccc3)cc21)c1ccccc1 | 5.05 | 9 | 43.8
O=C(NC(=S)N1CCc2c(OCCCCCOc3ccc(Cl)cc3)cccc21)c1ccccc1[N+](=O)[O-] | 1.65 | >30 | > 50
O=C(NC(=S)N1CCc2c(OCCCCCOc3ccc(Cl)cc3)cccc21)c1ccno1 | 2.06 | 18 | 37.1
O=C(NC(=S)N1CCc2c(OCCCCCOc3ccc(Cl)cc3)cccc21)c1cccs1 | 0.66 | 16 | 10.7
O=C(NC(=S)N1CCc2c(OCCCCCOc3ccc(Cl)cc3)cccc21)C1CCCCC1 | 42.5 | >1 | > 50

Compound | EC50 (Hepatitis C virus) [µM] | Ratio CC50/EC50 [1] | CC50 [2] [µM]
O=C(NC(=S)N1CCc2c(OCc3ccccc3)cccc21)c1ccccc1 | 3.18 | >16 | > 50
CC(C)(C)c1ccc(C(=O)NC(=S)N2CCc3c(OCCCCCOc4ccc(Cl)cc4)cccc32)cc1 | 1.95 | >26 | > 50
O=C(NC(=S)N1CCc2c(OCCCCCOc3ccc(Cl)cc3)cccc21)c1ccc(Br)cc1 | 0.88 | 33 | 29.1
O=C(NC(=S)N1CCc2c(OCCCCCOc3ccc(Cl)cc3)cccc21)c1cccc([N+](=O)[O-])c1 | 0.58 | 21 | 12.1
O=C(NC(=S)N1CCc2c(OCCCCCOc3ccc(Cl)cc3)cccc21)c1ccsc1 | 1.02 | >49 | > 50
NC(=S)N1CCc2c(OCCCCCOc3ccc(Cl)cc3)cccc21 | 4.71 | >11 | > 50
O=C(NC(=S)N1CCc2c(OCCCCCOc3ccc(Cl)cc3)cccc21)c1ccc([N+](=O)[O-])cc1 | 0.72 | 19 | 13.6
NC(=S)n1ccc2c(OCCCCCOc3ccc(Cl)cc3)cccc21 | 24.5 | 1 | 24.7
O=S(=O)(NC(=S)N1CCc2c(OCCCCCOc3ccc(Cl)cc3)cccc21)c1ccccc1 | > 50 | >1 | > 50
O=C(CCc1ccccc1)NC(=S)N1CCc2c(OCCCCCOc3ccc(Cl)cc3)cccc21 | 13.4 | >4 | > 50
O=C(NC(=S)N1CCc2c(OCCCCCOc3ccc(Cl)cc3)cccc21)c1ccc2ccccc2c1 | 2.16 | >23 | > 50
O=C(NC(=S)N1CCc2c(OCCCCCOc3ccc(Cl)cc3)cccc21)c1ccc(C(F)(F)F)cc1 | 1.23 | 27 | 32.7
O=C(NC(=S)N1CCc2c(OCCCCCOc3ccc(Cl)cc3)cccc21)c1ccccc1 | 0.79 | > 63 | > 50
O=C(NC(=S)N1CCc2cccc(OCc3ccccc3)c21)c1ccccc1 | > 50 | >1 | > 50
O=C(NC(=S)N1CCc2c(OCCCCCOc3ccc(Cl)cc3)cccc21)c1ccco1 | 0.58 | 8 | 4.62
CCCC(=O)NC(=S)N1CCc2c(OCCCCCOc3ccc(Cl)cc3)cccc21 | 31.6 | 2 | > 50
O=C(NC(=S)N1CCc2c(OCCCCCOc3ccc(Cl)cc3)cccc21)c1ccc(F)cc1 | 0.95 | 33 | 31.1
O=C(NC(=S)N1CCc2c(OCCCCCOc3ccc(Cl)cc3)cccc21)C1CCCC1 | 25.4 | >2 | > 50
O=C(NC(=S)n1ccc2c(OCCCCCOc3ccc(Cl)cc3)cccc21)c1ccccc1 | 4.06 | 7 | 29.5
